Key:
[1] = tested on: clotted blood; experiment: Binding of radiolabelled peptides to clotted blood
Method: (§1) The results (Table 2) indicate that all four peptides can bind platelets in ADP stimulated blood and that higher incorporation can be achieved In clotted blood.
(§2) Iodogen tubes were prepared by dissolving Iodogen (1, 3, 4, 6-Tetrachloro-3α, 6α-diphenylglycouril) in chloroform at a concentration of 1 mg.ml-^1. Aliquots of 50 μl (50 μg Iodogen) were dispensed into polypropylene cryo-tubes and the chloroform evaporated to dryness. These tubes were then stored dessicated at -20° C. until required.
(§3) Prior to radiolabelling the peptides were dissolved in phosphate buffered saline (PBS) at a concentration of 50 mg.ml-^1. RGDSYC and […] were first dissolved in a small volume of dimethyl sulphoxide (DMSO) such that the final concentration of DMSO in PBS was 1% v/v.
(§4) Iodogen tubes were equilibrated to room temperature before the addition of 200 μl peptide solution and 1-10 μl of ^123 I (in aqueous solution). The reaction mixture was then left for 15min at room temperature with occasional shaking. Following the incubation period the reaction mixture was removed and passed through a Sephadex G10 column which had been equilibrated with PBS. The column, which separates radiolabelled peptide from free iodine was eluted with PBS and 2 ml fractions collected. Radioactivity in the fractions was measured and the eluted peptides, represented by the first radioactive peak from the column, collected and stored at 4° C. until required.

[2] = tested on: activated platelets in whole blood (ADP stimulated blood); experiment: Binding of radiolabelled peptides to ADP stimulated blood
Method: as §1, §2, §3, §4

[3] = tested on: ADP (1 × 10^-5 M)-induced platelet aggregation; experiment: Inhibition of ADP-induced platelet aggregation; type: cell-based
Method: The effect of these peptides on ADP-induced platelet aggregation was determined and compared with peptide RGDS which is known to inhibit platelet aggregation.

**Q.** With RGDSCRGDSY as the sequence, how does the bound peptide ([1]; 1 ng radiolabelled peptide) read?
**A.** 0.28 ng

**Q.** What about the bound peptide ([1]; 10 ng radiolabelled peptide) of the same sequence?
**A.** 2.64 ng

**Q.** What about the bound peptide ([1]; 100 ng radiolabelled peptide) of the same sequence?
**A.** 29.33 ng

**Q.** And the bound peptide ([2]; 1 ng radiolabelled peptide)?
**A.** 0.01 ng

**Q.** What about the bound peptide ([2]; 10 ng radiolabelled peptide) of the same sequence?
**A.** 0.85 ng

**Q.** And the bound peptide ([2]; 100 ng radiolabelled peptide)?
**A.** 9.07 ng

**Q.** What about the “percentage inhibition of ADP-induced platelet aggregation” value (shortened to “percentage inhibition”) ([3]; peptide 0.1 mM) of the same sequence?
**A.** 17%

**Q.** What about the “percentage inhibition” value ([3]; peptide 0.2 mM) of the same sequence?
**A.** 57%

**Q.** And the “percentage inhibition” value ([3]; peptide 0.4 mM)?
**A.** 79%

From patent US5843402A, “Synthetic peptides for use in thrombus detection” (Antisoma Research Limited, priority 1989, dated 1998)
